Measurements published in patent publication US20250332173A1, “COMPOUNDS AND METHODS FOR MODULATING NUCLEIC ACID SPLICING” (REMIX THERAPEUTICS INC., priority 2021, published 2025).
Read-outs that look alike come from different tables or passages of the source.

Assays:
MYB mRNA = assay: RT-qPCR splicing assay, MYB canonical junction (CJ) and alternative junction (AJ) mRNA; assay type: cell-based, human; details: Homo sapiens; for AC50: increase in MYB alternative junction (AJ) mRNA, read-out: MYB AJ AC50
Description: (§1) The expression of a target mRNA was measured by detecting the formation of an exon-exon junction in the canonical transcript (CJ). A compound mediated exon-inclusion event was detected by observing an increase in formation of a new junction with an alternative exon (AJ). Real-time qPCR assays were used to detect these splicing switches and interrogate the potency of various compounds towards different target genes. A high-throughput real time quantitative PCR (RT-qPCR) assay was developed to measure these two isoforms of the mRNA (CJ and AJ) for exemplary genes, such as HTT, SMN2, and MYB, together with a control housekeeping gene, GAPDH or GUSB or PPIA, used for normalization. Briefly, the A673 or K562 cell line was treated with various compounds described herein (e.g., compounds of Formula (I)). After treatment, the levels of the HTT, MYB, or SMN2 mRNA targets were determined from each sample of cell lysate by cDNA synthesis followed by qPCR.
(§2) • Cells-to-CT 1-step kit: ThermoFisher A25602, Cells-to-CT lysis reagent: ThermoFisher 4391851C, TaqMan™ Fast Virus 1-Step Master Mix: ThermoFisher 4444436 • GAPDH: VIC-PL, ThermoFisher 4326317E (Assay: Hs99999905_m1)—used for K562/suspension cell lines • GUSB: VIC-PL, ThermoFisher 4326320E (Assay: Hs99999908_m1)—used for K562/suspension cell lines • PPIA: VIC-PL, ThermoFisher 4326316E (Assay: Hs99999904_m1)—used for A673/adherent cell lines
(§3) The A673 cell line was cultured in DMEM with 10% FBS. Cells were diluted with full growth media and plated in a 96-well plate (15,000 cells in 100 ul media per well). The plate was incubated at 37° C. with 5% CO2 for 24 hours to allow cells to adhere. An 11-point 3-fold serial dilution of the compounds was made in DMSO then diluted in media in an intermediate plate. Compounds were transferred from the intermediate plate to the cell plate with the top dose at a final concentration of 10 uM in the well. Final DMSO concentration was kept at or below 0.25%. The cell plate was returned to the incubator at 37° C. with 5% CO2 for an additional 24 hours.
(§4) The K562 cell line was cultured in IMDM with 10% FBS. For K562, cells were diluted with full growth media and plated in either a 96-well plate (50,000 cells in 50 uL media per well) or a 384-well plate (8,000-40,000 cells in 45 uL media per well). An 11-point 3-fold serial dilution of the compounds were made in DMSO then diluted in media in an intermediate plate. Compound was transferred from the intermediate plate to the cell plate with the top dose at a final concentration of 10 uM in the well. Final DMSO concentration was kept at or below 0.25%. Final volume was 100 uL for 96-well plate and 50 uL for 384-well plate. The cell plate was then placed in an incubator at 37° C. with 5% CO2 for 24 hours.
(§5) The cells were then gently washed with 50 uL-100 uL cold PBS before proceeding to addition of lysis buffer. 30 uL-50 uL of room temperature lysis buffer with DNAse I (and optionally RNAsin) was added to each well. Cells were shaken/mixed thoroughly at room temperature for 5-10 minutes for lysis to take place and then 3 uL-5 uL of room temperature stop solution was added and wells were shaken/mixed again. After 2-5 minutes, the cell lysate plate was transferred to ice for RT-qPCR reaction setup. The lysates could also be frozen at −80° C. for later use.
(§6) In some cases, a direct lysis buffer was used. An appropriate volume of 3× lysis buffer (10 mM Tris, 150 mM NaCl, 1.5%-2.5% Igepal and 0.1-1 U/uL RNAsin, pH 7.4) was directly added to either K562 or A673 cells in media and mixed by pipetting 3 times. The plates were then incubated at room temperature with shaking/rocking for 20-50 minutes to allow for lysis to take place. After this time, the cell lysate plate was transferred to ice to set up for the RT-qPCR reactions. The lysates could also be frozen at −80° C. for later use.

Target C = assay: RT-qPCR splicing assay panel, Target C canonical junction (CJ) mRNA; assay type: cell-based, human; details: Homo sapiens
Description: as §1, §3, §4, §5, §6
(§7) To set up 10 uL RT-qPCR reactions, cell lysates were transferred to 384-well qPCR plates containing the master mix according to the table below. The plates were sealed, gently vortexed, and spun down before the run. The volumes were adjusted accordingly in some instances where the reaction was carried in 20 uL. The table below summarizes the components of the RT-qPCR reactions:
(§8) The RT-qPCR reaction was performed using a QuantStudio (ThermoFisher) under the following fast cycling conditions.

HTT mRNA = assay: RT-qPCR splicing assay, HTT canonical junction (CJ) and alternative junction (AJ) mRNA; assay type: cell-based, human; details: Homo sapiens; for AC50: increase in HTT alternative junction (AJ) mRNA, read-out: HTT AJ AC50
Description: as §1, §2, §3, §4, §5, §6

SMN2 mRNA = assay: RT-qPCR splicing assay, SMN2 canonical junction (CJ) mRNA; assay type: cell-based, human; details: Homo sapiens
Description: as §1, §3, §4, §5, §6, §7, §8

[1] = system: K562 (human chronic myelogenous leukemia) cells; assay: Cell Titer Glo 2.0 cell viability assay; assay type: cell-based; details: Homo sapiens, K562, 72 h, K562 cells, 72 hours, Cell Titer Glo 2.0; read-out: K562 GI50
[2] = canonical junction qPCR panel, Table 5, read-out: MYB (decrease in CJ mRNA levels, IC50)
[3] = decrease in MYB canonical junction (CJ) mRNA, RT-qPCR, read-out: MYB CJ IC50
[4] = canonical junction qPCR panel, Table 5, read-out: Target C (decrease in CJ mRNA levels, IC50)
[5] = decrease in HTT canonical junction (CJ) mRNA, RT-qPCR, read-out: HTT CJ IC50
[6] = canonical junction qPCR panel, Table 5, read-out: HTT (decrease in CJ mRNA levels, IC50)
[7] = canonical junction qPCR panel, Table 5, read-out: SMN2 (decrease in CJ mRNA levels, IC50)
[8] = Table 5 panel, canonical junction qPCR, compound concentration having 50% response in CJ decrease, read-out: MYB IC50 (decrease in CJ mRNA levels)
[9] = Table 5 panel, canonical junction qPCR, compound concentration having 50% response in CJ decrease, read-out: Target C IC50 (decrease in CJ mRNA levels)
[10] = Table 5 panel, canonical junction qPCR, compound concentration having 50% response in CJ decrease, read-out: HTT IC50 (decrease in CJ mRNA levels)
[11] = Table 5 panel, canonical junction qPCR, compound concentration having 50% response in CJ decrease, read-out: SMN2 IC50 (decrease in CJ mRNA levels)

Row | IC50 (MYB mRNA; [2]) | IC50 (MYB mRNA; [3]) | IC50 (Target C; [4]) | IC50 (HTT mRNA; [5]) | IC50 (HTT mRNA; [6]) | IC50 (SMN2 mRNA; [7]) | GI50 [1] | IC50 (MYB mRNA; [8]) | IC50 (Target C; [9]) | IC50 (HTT mRNA; [10]) | IC50 (SMN2 mRNA; [11]) | Compound | AC50 (MYB mRNA; RT-qPCR) | AC50 (HTT mRNA; RT-qPCR)
1 | 100 to 1000 nM | 100 to 1000 nM | > 10000 nM | 1000 to 10000 nM | 1000 to 10000 nM | < 100 nM | 100 to 1000 nM | – | – | – | – | Cc1c(O)c(-c2ncc3c(=O)n([C@@H]4CCNC(C)(C)C4)ccc3n2)cc2cn(C)nc12 [Compound 1435] | 100 to 1000 nM | 1000 to 10000 nM
2 | 100 to 1000 nM | < 100 nM | 1000 to 10000 nM | 1000 to 10000 nM | 100 to 1000 nM | < 100 nM | 100 to 1000 nM | – | – | – | – | Cc1cn2cc(-c3nc(C)c4c(=O)n(C5C[C@H](C)N[C@@H](C)C5)ccc4n3)cc(F)c2n1 (stereo partly shown) [Compound 1523] | 100 to 1000 nM | 100 to 1000 nM
3 | 100 to 1000 nM | 100 to 1000 nM | 1000 to 10000 nM | 1000 to 10000 nM | 1000 to 10000 nM | < 100 nM | 100 to 1000 nM | – | – | – | – | CN[C@H]1CC[C@@H](n2ccc3nc(-c4cc5cn(C)nc5c(C)c4O)ncc3c2=O)C1 [Compound 1478, 2-(6-hydroxy-2,7-dimethyl-indazol-5-yl)-6-[(1R,3S)-3-(methylamino)cyclopentyl]pyrido[4,3-d]pyrimidin-5-one] | 100 to 1000 nM | 1000 to 10000 nM
4 | 100 to 1000 nM | < 100 nM | 100 to 1000 nM | 100 to 1000 nM | 100 to 1000 nM | < 100 nM | 100 to 1000 nM | – | – | – | – | Cc1cn2cc(-c3cc(C)c4c(=O)n(C5CCNCC5)ccc4n3)cc(F)c2n1 [Compound 1524, 2-(8-fluoro-2-methyl-imidazo[1,2-a]pyridin-6-yl)-4-methyl-6-(4-piperidyl)-1,6-naphthyridin-5-one] | 100 to 1000 nM | 100 to 1000 nM
5 | < 100 nM | < 100 nM | 100 to 1000 nM | 100 to 1000 nM | < 100 nM | < 100 nM | < 100 nM | – | – | – | – | Cc1c(O)c(-c2ccc3c(=O)n([C@H]4CCN[C@@H](C)C4)ccc3n2)cc2cn(C)nc12 [Compound 1520, 2-(6-hydroxy-2,7-dimethyl-indazol-5-yl)-6-[(2S,4S)-2-methyl-4-piperidyl]-1,6-naphthyridin-5-one] | < 100 nM | < 100 nM
6 | 100 to 1000 nM | 100 to 1000 nM | 1000 to 10000 nM | 1000 to 10000 nM | 1000 to 10000 nM | < 100 nM | 100 to 1000 nM | – | – | – | – | Cc1cn2cc(-c3ccc4c(=O)n([C@H]5CCN[C@@H](C)C5)ccc4n3)cc(F)c2n1 [Compound 1494] | 100 to 1000 nM | 1000 to 10000 nM
7 | < 100 nM | < 100 nM | > 10000 nM | 1000 to 10000 nM | 1000 to 10000 nM | < 100 nM | < 100 nM | – | – | – | – | CNC12CCC(n3ccc4nc(-c5cc6cn(C)nc6cc5O)ccc4c3=O)(CC1)C2 [Compound 1525] | < 100 nM | 1000 to 10000 nM
8 | 1000 to 10000 nM | 1000 to 10000 nM | 1000 to 10000 nM | 100 to 1000 nM | 100 to 1000 nM | 100 to 1000 nM | 1000 to 10000 nM | – | – | – | – | Cc1cn2nc(-c3ccc4c(=O)n([C@H]5CCNC6(CC6)C5)ncc4n3)cc2c(C)n1 [Compound 1549, 6-[(7S)-4-azaspiro[2.5]octan-7-yl]-2-(4,6-dimethylpyrazolo[1,5-a]pyrazin-2-yl)pyrido[2,3-d]pyridazin-5-one] | 1000 to 10000 nM | 100 to 1000 nM
9 | 100 to 1000 nM | 100 to 1000 nM | 100 to 1000 nM | 100 to 1000 nM | 100 to 1000 nM | 100 to 1000 nM | 100 to 1000 nM | – | – | – | – | Cc1cn2nc(-c3ccc4c(=O)n([C@@H]5CCNC6(CC6)C5)ncc4n3)cc2c(C)n1 [Compound 1548, 6-[(7R)-4-azaspiro[2.5]octan-7-yl]-2-(4,6-dimethylpyrazolo[1,5-a]pyrazin-2-yl)pyrido[2,3-d]pyridazin-5-one] | 100 to 1000 nM | 100 to 1000 nM
10 | 100 to 1000 nM | < 100 nM | 100 to 1000 nM | 100 to 1000 nM | 100 to 1000 nM | < 100 nM | 100 to 1000 nM | – | – | – | – | C[C@H]1C[C@@H](n2ccc3nc(-c4cc(F)c5nn(C)cc5c4)ncc3c2=O)CCN1 [Compound 1503, 2-(7-fluoro-2-methyl-indazol-5-yl)-6-[(2S,4S)-2-methyl-4-piperidyl]pyrido[4,3-d]pyrimidin-5-one] | 100 to 1000 nM | 100 to 1000 nM
11 | 100 to 1000 nM | 100 to 1000 nM | 100 to 1000 nM | 100 to 1000 nM | 100 to 1000 nM | 100 to 1000 nM | 1000 to 10000 nM | – | – | – | – | Cc1cn2nc(-c3ccc4c(=O)n([C@H]5CCN[C@@H](C6CC6)C5)ncc4n3)cc(C)c2n1 [Compound 1550] | 100 to 1000 nM | 100 to 1000 nM
12 | < 100 nM | < 100 nM | 100 to 1000 nM | 100 to 1000 nM | < 100 nM | < 100 nM | 100 to 1000 nM | – | – | – | – | Cc1cn2nc(-c3ccc4c(=O)n([C@H]5CCN[C@@H](C)C5)ccc4n3)cc(C)c2n1 [Compound 1495] | < 100 nM | < 100 nM
13 | – | 100 to 1000 nM | – | 100 to 1000 nM | – | – | – | 100 to 1000 nM | 100 to 1000 nM | 100 to 1000 nM | < 100 nM | Cc1cn2cc(-c3ccc4c(=O)n(C5CCNC(C)C5)cnc4c3)cc(F)c2n1 (stereo not shown) [Compound 323] | 100 to 1000 nM | 100 to 1000 nM
14 | – | > 10000 nM | – | > 10000 nM | – | – | – | > 10000 nM | > 10000 nM | > 10000 nM | > 10000 nM | Cc1cn2nc(-c3ccc4nc(NC5CCNCC5)[nH]c(=O)c4c3)cc(C)c2n1 [Compound 192] | > 10000 nM | > 10000 nM
